# Like-named read-outs stand apart in the source and are kept apart here.
# Legend:
# [1] = system: recombinant rhesus HPH protein; assay: Effect of additives on activity of recombinant rhesus HPH enzyme; format: biochemical, rhesus monkey (Macaca mulatta)
# [2] = target: T1, rhesus HPH3 (Macaca mulatta, UniProt H9FPE4); assay: TR-FRET HPH enzyme assay (VBC recognition of hydroxylated peptide), HPH3; format: biochemical, rhesus monkey (Macaca mulatta); conditions: recombinant rhesus HPH3, inhibitory activity
# T1 construct: fused on or other part: GST tag, N- or C-terminal, for purification
# Procedure: More specifically, the HPH enzyme assay is conducted in a multi-well plate format. In a suitable buffer, a peptide substrate for the HPH, and a substrate for a protein-based pull down assay, and HPH enzyme are incubated for a period of time and at a temperature sufficient to allow the hydroxylation of the proline-containing substrate to occur. After the incubation period (e.g., 45 min.) the reaction is quenched by the addition of a solution containing the detection reagents. In specific embodiments, the solution comprises EDTA (2.5 mM) and the detection reagents (GST-VBC, Streptavidin-allophycocyanin and Europium-labeled anti-GST Antibody). The detection method in this assay is time-resolved fluorescent assay in which the time-resolved fluorescent signal (excitation at 330 nm; emission at 620 and 665 nm) is read on a plate reader after 1 of incubation. The ratio of signal at 665 nm to 620 nm is used to calculate the amount of peptide interaction with GST-VBC as a measure of protein hydroxylation.
# In an exemplary assay, the assay is conducted in a 96 or 384-well plate format. […]
# In the assay, the biotinylated substrate is captured by the Streptavidin which is attached to allophycocyanin. […] The time-resolved fluorescent signal (excitation at 330 nm; emission at 620 and 665 nm) is read on a plate reader after 1 h of incubation. […]
# [3] = target: rhesus HPH2 (Macaca mulatta, UniProt I2CX88); assay: biochemical
# Procedure: (§1) More specifically, the HPH enzyme assay is conducted in a multi-well plate format. In a suitable buffer, a peptide substrate for the HPH, and a substrate for a protein-based pull down assay, and HPH enzyme are incubated for a period of time and at a temperature sufficient to allow the hydroxylation of the proline-containing substrate to occur. After the incubation period (e.g., 45 min.) the reaction is quenched by the addition of a solution containing the detection reagents. In specific embodiments, the solution comprises EDTA (2.5 mM) and the detection reagents (GST-VBC, Streptavidin-allophycocyanin and Europium-labeled anti-GST Antibody). The detection method in this assay is time-resolved fluorescent assay in which the time-resolved fluorescent signal (excitation at 330 nm; emission at 620 and 665 nm) is read on a plate reader after […] of incubation. The ratio of signal at 665 nm to 620 nm is used to calculate the amount of peptide interaction with GST-VBC as a measure of protein hydroxylation.
# (§2) In an exemplary assay, the assay is conducted in a 96 or 384-well plate format. In the 384-well scale, the reaction (10 μl) contains buffer (20 mM MOPS (pH 6.5), 1.5 mM magnesium chloride, 5 mM potassium chloride, 0.1% bovine serum albumin, 1 mM TCEP, 10 μM ferrous ammonium sulfate, and 2 mM sodium ascorbate), substrate (2 μM α-ketoglutarate and 60 nM HIF-1αs peptide (biotin-[…]), enzyme (e.g. 8 nM of HPH3), and an inhibitor from a DMSO solution (1% DMSO final in the assay). After 45 min, the reaction is quenched by the addition of EDTA (2.5 mM) and the detection reagents (GST-VBC, Streptavidin-allophycocyanin and Europium-labeled anti-GST Antibody). The time-resolved fluorescent signal (excitation at 330 nm; emission at 620 and 665 nm) is read on a plate reader after 1 h of incubation. The ratio of signal at 665 nm to 620 nm is used to calculate the amount of peptide interaction with GST-VBC as a measure of protein hydroxylation.
# (§3) In the assay, the biotinylated substrate is captured by the Streptavidin which is attached to allophycocyanin. The VBC interacts with the substrate and the interaction is recognized through the aid of an anti GST antibody which is labeled with europium. […] The time-resolved fluorescent signal (excitation at 330 nm; emission at 620 and 665 nm) is read on a plate reader after 1 h of incubation. The ratio of signal at 665 nm to 620 nm is used to calculate the amount of peptide interaction with GST-VBC as a measure of protein hydroxylation.
# (§4) The VBC protein complex was generated by co-expression of Glutathione S-Transferase-VHL (von Hippel Lindau), elongin B and elongin C in Escherichia coli followed by purification of the complex using glutathione affinity resin and size-exclusion chromatography.
# [4] = target: rhesus HPH1 (Macaca mulatta, UniProt H9FPE3, INS27EP); assay: biochemical
# Procedure: as §1, §2, §3, §4
# rhesus HPH2, sequence (I2CX88 1-426): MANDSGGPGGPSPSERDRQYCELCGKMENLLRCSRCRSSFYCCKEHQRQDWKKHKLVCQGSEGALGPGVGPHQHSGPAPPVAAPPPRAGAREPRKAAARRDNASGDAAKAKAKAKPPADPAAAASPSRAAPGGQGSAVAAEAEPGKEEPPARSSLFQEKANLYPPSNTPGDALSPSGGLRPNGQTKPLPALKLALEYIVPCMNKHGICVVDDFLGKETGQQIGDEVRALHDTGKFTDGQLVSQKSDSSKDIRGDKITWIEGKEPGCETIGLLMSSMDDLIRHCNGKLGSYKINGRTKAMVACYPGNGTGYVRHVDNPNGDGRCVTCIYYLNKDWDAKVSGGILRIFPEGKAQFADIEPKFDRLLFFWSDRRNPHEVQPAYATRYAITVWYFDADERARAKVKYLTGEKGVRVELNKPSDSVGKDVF
# rhesus HPH1, sequence (H9FPE3 1-405, stated change not applied): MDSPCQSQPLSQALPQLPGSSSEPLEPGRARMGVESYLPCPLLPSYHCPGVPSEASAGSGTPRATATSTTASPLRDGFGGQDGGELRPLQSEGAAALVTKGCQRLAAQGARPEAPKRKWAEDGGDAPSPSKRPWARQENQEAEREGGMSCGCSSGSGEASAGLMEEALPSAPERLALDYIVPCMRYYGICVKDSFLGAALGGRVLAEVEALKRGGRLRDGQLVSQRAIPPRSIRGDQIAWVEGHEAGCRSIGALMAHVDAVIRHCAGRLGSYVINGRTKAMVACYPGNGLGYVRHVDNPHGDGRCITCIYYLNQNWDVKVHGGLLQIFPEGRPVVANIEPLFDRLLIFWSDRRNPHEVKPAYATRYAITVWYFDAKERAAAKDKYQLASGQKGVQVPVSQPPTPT
smiles,measurement,setting,value
[Fe+2] [ferrous iron],effect on enzyme activity,"[1]; addition to recombinant rhesus HPH enzyme, isoform not stated",increased the activity of the enzyme
O=C(O)CCC(=O)O [Succinate],IC50,[2],80 µM
same,IC50,"[3]; read-out: IC50 HPH2, recombinant rhesus HPH2, inhibitory activity",380 µM
same,IC50,"[4]; read-out: IC50 HPH1, recombinant rhesus HPH1, inhibitory activity",200 µM
[Cl-].[Cl-].[Co+2] [CoCl2],effect on enzyme activity,[1],inhibited enzyme activity
NNc1nncc2ccccc12 [Hydralazine],IC50,[3],320 µM
same,IC50,[4],400 µM
